Key:
[1] = test system: beet armyworm (Spodoptera exigua, LAPHEG) ("BAW"); assay: Insecticidal test for beet armyworm, 128-well diet tray assay; format: in vivo; conditions: 168 h, 50 μg/cm^2 of test compound on artificial diet, second instar BAW larvae, 25° C., five to seven days, average of eight wells, read-out: BAW % Control (or Mortality) rating
Protocol: Insecticidal test for beet armyworm (Spodoptera exigua, LAPHEG) (“BAW”)
(§1) Bioassays on beet armyworm (BAW; Spodoptera exigua: Lepidoptera) are conducted using a 128-well diet tray assay. One to five second instar BAW larvae are placed in each well (3 mL) of the diet tray that had been previously filled with 1 mL of artificial diet to which 50 μg/cm^2 of the test compound (dissolved in 50 μL of 90:10 acetone-water mixture) had been applied (to each of eight wells) and then allowed to dry. Trays are covered with a clear self-adhesive cover, vented to allow gas exchange, and held at 25° C., 14:10 light-dark for five to seven days. Percent mortality is recorded for the larvae in each well; activity in the eight wells is then averaged.

[2] = test system: Cabbage Looper (Trichloplusia ni, TRIPNI) ("CL"); assay: Insecticidal test for cabbage looper, 128-well diet tray assay; format: in vivo; conditions: Trichoplusia ni, 168 h; 50 μg/cm^2 of test compound on artificial diet; second instar CL larvae; 25° C.; five to seven days; average of eight wells; read-out: CL % Control (or Mortality) rating
Protocol: Insecticidal Test for Cabbage Looper (Trichloplusia ni, TRIPNI) (“CL”)
as §1, with “cabbage looper (CL; Trichloplusia ni:” for “beet armyworm (BAW; Spodoptera exigua:”, “CL” for “BAW”

| SMILES | mortality at 50 µg/cm2 [1] [%] | mortality at 50 µg/cm2 [2] [%] |
| --- | --- | --- |
| Cc1ccc(C(C)C)c(N2C(=O)CS/C2=N\C(=O)NN(C)C(C)c2ccc(-c3ncn(-c4ccc(OC(F)(F)F)cc4)n3)cc2)c1 (stereo not shown) [A3, (Z)—N-(3-(2-isopropyl-5-methylphenyl)-4-oxothiazolidin-2-ylidene)-2-methyl-2-(1-(4-(1-(4-(trifluoromethoxy)phenyl)-1H-1,2,4-triazol-3-yl)phenyl)ethyl)hydrazine-1-carboxamide] | 50 to 100 | 50 to 100 |
| Cc1ccc(C(C)C)c(N2C(=O)CS/C2=N\C(=O)NN(C)Cc2ccc(-c3ncn(-c4ccc(OC(F)(F)F)cc4)n3)cc2)c1 [A4, (Z)—N-(3-(2-isopropyl-5-methylphenyl)-4-oxothiazolidin-2-ylidene)-2-methyl-2-(4-(1-(4-(trifluoromethoxy)phenyl)-1H-1,2,4-triazol-3-yl)benzyl)hydrazine-1-carboxamide] | 50 to 100 | 50 to 100 |
| CC(NNC(=O)/N=C1\SCC(=O)N1c1cc(Cl)ccc1OC(F)(F)F)c1ccc(-c2ncn(-c3ccc(OC(F)(F)F)cc3)n2)cc1 (stereo not shown) [A5, (Z)—N-(3-(5-chloro-2-(trifluoromethoxy)phenyl)-4-oxothiazolidin-2-ylidene)-2-(1-(4-(1-(4-(trifluoromethoxy)phenyl)-1H-1,2,4-triazol-3-yl)phenyl)ethyl)hydrazine-1-carboxamide] | 50 to 100 | 50 to 100 |
| Cc1ccc(OCC(F)(F)F)c(N2C(=O)CS/C2=N\C(=O)NNC(C)c2ccc(-c3ncn(-c4ccc(OC(F)(F)F)cc4)n3)cc2)c1 (stereo not shown) [A6, (Z)—N-(3-(5-Methyl-2-(2,2,2-trifluoroethoxy)phenyl)-4-oxothiazolidin-2-ylidene)-2-(1-(4-(1-(4-(trifluoromethoxy)phenyl)-1H-1,2,4-triazol-3-yl)phenyl)ethyl)hydrazine-1-carboxamide] | 50 to 100 | 50 to 100 |
| CC(C)c1ccc(Cl)cc1N1C(=O)CS/C1=N\C(=O)NNC(C)c1ccc(-c2ncn(-c3ccc(OC(F)(F)F)cc3)n2)cc1 (stereo not shown) [A8, (Z)—N-(3-(5-Chloro-2-isopropylphenyl)-4-oxothiazolidin-2-ylidene)-2-(1-(4-(1-(4-(trifluoromethoxy)phenyl)-1H-1,2,4-triazol-3-yl)phenyl)ethyl)hydrazine-1-carboxamide] | 50 to 100 | 50 to 100 |
| Cc1ccc(C(C)C)c(N2C(=O)CS/C2=N\C(=O)NNC(C)c2ccc(-c3ncn(-c4ccc(OC(F)(F)F)cc4)n3)cc2)c1 (stereo not shown) [A9, (Z)—N-(3-(2-Isopropyl-5-methylphenyl)-4-oxothiazolidin-2-ylidene)-2-(1-(4-(1-(4-(trifluoromethoxy)phenyl)-1H-1,2,4-triazol-3-yl)phenyl)ethyl)hydrazine-1-carboxamide] | 50 to 100 | 50 to 100 |
| CCCc1ccc(C)cc1N1C(=O)CS/C1=N\C(=O)NOCc1ccc(-c2ncn(-c3ccc(OC(F)(F)F)cc3)n2)cc1 [A10, (Z)-1-(3-(5-methyl-2-propylphenyl)-4-oxothiazolidin-2-ylidene)-3-((4-(1-(4-(trifluoromethoxy)phenyl)-1H-1,2,4-triazol-3-yl)benzyl)oxy)urea] | 50 to 100 | 50 to 100 |
| Cc1ccc(Cl)c(N2C(=O)CS/C2=N\C(=O)NOC(C)c2ccc(-c3ncn(-c4ccc(OC(F)(F)F)cc4)n3)cc2)c1 (stereo not shown) [A11, (Z)-1-(3-(2-Chloro-5-methylphenyl)-4-oxothiazolidin-2-ylidene)-3-(1-(4-(1-(4-(trifluoromethoxy)phenyl)-1H-1,2,4-triazol-3-yl)phenyl)ethoxy)urea] | 50 to 100 | 50 to 100 |
| CCCc1ccc(C)cc1N1C(=O)CS/C1=N\C(=O)NOC(C)c1ccc(-c2ncn(-c3ccc(OC(F)(F)F)cc3)n2)cc1 (stereo not shown) [A12, (Z)-1-(3-(5-Methyl-2-propylphenyl)-4-oxothiazolidin-2-ylidene)-3-(1-(4-(1-(4-(trifluoromethoxy)phenyl)-1H-1,2,4-triazol-3-yl)phenyl)ethoxy)urea] | 50 to 100 | 50 to 100 |
| Cc1ccc(C(F)(F)F)c(N2C(=O)CS/C2=N\C(=O)NOC(C)c2ccc(-c3ncn(-c4ccc(OC(F)(F)F)cc4)n3)cc2)c1 (stereo not shown) [A13, (Z)-1-(3-(5-Methyl-2-(trifluoromethyl)phenyl)-4-oxothiazolidin-2-ylidene)-3-(1-(4-(1-(4-(trifluoromethoxy)phenyl)-1H-1,2,4-triazol-3-yl)phenyl)ethoxy)urea] | 50 to 100 | 50 to 100 |
| COc1ccc(C(C)C)c(N2C(=O)CS/C2=N\C(=O)NOC(C)c2ccc(-c3ncn(-c4ccc(OC(F)(F)F)cc4)n3)cc2)c1 (stereo not shown) [A14, (Z)-1-(3-(2-Isopropyl-5-methoxyphenyl)-4-oxothiazolidin-2-ylidene)-3-(1-(4-(1-(4-(trifluoromethoxy)phenyl)-1H-1,2,4-triazol-3-yl)phenyl)ethoxy)urea] | 50 to 100 | 50 to 100 |
| CCCc1ccc(OC)cc1N1C(=O)CS/C1=N\C(=O)NOC(C)c1ccc(-c2ncn(-c3ccc(OC(F)(F)F)cc3)n2)cc1 (stereo not shown) [A15, (Z)-1-(3-(5-Methoxy-2-propylphenyl)-4-oxothiazolidin-2-ylidene)-3-(1-(4-(1-(4-(trifluoromethoxy)phenyl)-1H-1,2,4-triazol-3-yl)phenyl)ethoxy)urea] | 50 to 100 | 50 to 100 |
| COCc1ccc(C)cc1N1C(=O)CS/C1=N\C(=O)NOC(C)c1ccc(-c2ncn(-c3ccc(OC(F)(F)F)cc3)n2)cc1 (stereo not shown) [A16, (Z)-1-(3-(2-(Methoxymethyl)-5-methylphenyl)-4-oxothiazolidin-2-ylidene)-3-(1-(4-(1-(4-(trifluoromethoxy)phenyl)-1H-1,2,4-triazol-3-yl)phenyl)ethoxy)urea] | 50 to 100 | 50 to 100 |
| Cc1ccc(C(C)C)c(N2C(=O)CS/C2=N\C(=O)NOC(C)c2ccc(-c3ncn(-c4ccc(OC(F)(F)F)cc4)n3)cc2)c1 (stereo not shown) [A17, (Z)-1-(3-(2-Isopropyl-5-methylphenyl)-4-oxothiazolidin-2-ylidene)-3-(1-(4-(1-(4-(trifluoromethoxy)phenyl)-1H-1,2,4-triazol-3-yl)phenyl)ethoxy)urea] | 50 to 100 | 50 to 100 |
| CC(C)c1ccccc1N1C(=O)CS/C1=N\C(=O)NOC(C)c1ccc(-c2ncn(-c3ccc(OC(F)(F)F)cc3)n2)cc1 (stereo not shown) [A18, (Z)-1-(3-(2-Isopropylphenyl)-4-oxothiazolidin-2-ylidene)-3-(1-(4-(1-(4-(trifluoromethoxy)phenyl)-1H-1,2,4-triazol-3-yl)phenyl)ethoxy)urea] | 50 to 100 | 50 to 100 |
| Cc1ccc(OCC(F)(F)F)c(N2C(=O)CS/C2=N\C(=O)NOC(C)c2ccc(-c3ncn(-c4ccc(OC(F)(F)F)cc4)n3)cc2)c1 (stereo not shown) [A19, (Z)-1-(3-(5-Methyl-2-(2,2,2-trifluoroethoxy)phenyl)-4-oxothiazolidin-2-ylidene)-3-(1-(4-(1-(4-(trifluoromethoxy)phenyl)-1H-1,2,4-triazol-3-yl)phenyl)ethoxy)urea] | 50 to 100 | 50 to 100 |
| CC(ONC(=O)/N=C1\SCC(=O)N1c1cc(Cl)ccc1OCC(F)(F)F)c1ccc(-c2ncn(-c3ccc(OC(F)(F)F)cc3)n2)cc1 (stereo not shown) [A20, (Z)-1-(3-(5-Chloro-2-(2,2,2-trifluoroethoxy)phenyl)-4-oxothiazolidin-2-ylidene)-3-(1-(4-(1-(4-(trifluoromethoxy)phenyl)-1H-1,2,4-triazol-3-yl)phenyl)ethoxy)urea] | 50 to 100 | 50 to 100 |
